Reference: patent US11890287B2, “Therapeutic compounds and compositions for treating social disorders and substance use disorders” (Kinoxis Therapeutics Pty Ltd, priority 2015, dated 2024)
Where “and” joins values, the source holds several entries; their conditions need not be identical. Equal values may be shown once. Read-outs that look alike come from different tables or passages of the source.

Assays:
[1] = 24-hour pharmacokinetic study, intravenous route; assay type: in vivo, male Sprague Dawley rats; conditions: 20 mg/kg IV; for Vd: read-out: Vz
Experimental: A single intravenous 20 mg/kg (corresponding to ˜17.1 mg/kg expressed as the free base corrected for purity) bolus dose of SOC-1 test item formulated in Hartman's solution was administered to three adult male Sprague Dawley rats. A total of 10 blood samples were collected from each rat at time points ranging from pre-dose to 24 hours post-dose. The blood samples were subsequently processed to plasma and analysed for plasma concentrations of SOC-1 using a screening LC-MS/MS method (assay range=50-5000 ng/mL). Pharmacokinetic parameters were estimated from the plasma concentration versus time data by non-compartmental methods using Phoenix 64 WinNonlin® software.
Prior to treatments the rats were subject to surgery to cannulate the jugular vein (for dose administration, IV) and femoral artery (for blood sample collection, IA) with exteriorisation of the cannulas per test facility SOPs. Following recovery from surgery the rats were transferred to a Culex system for dose administration and blood sampling (with both lines tended per test facility SOPs).
The intravenous treatments were administered via the jugular cannula with a dosing volume of 4.0 mL/kg on the day following surgery. The treatments were followed by ˜200 μL vehicle to ensure a full dose was delivered to the animals.
Blood samples (˜250 μl) were collected in lithium heparin tubes from the IA cannula at the following time points: pre-dose, 2, 5, 10, 30, 60 minutes, 2, 4, 8 and 24 hours post-dose
Blood samples were kept on ice immediately after collection to minimize degradation and centrifuged as soon as possible at approximately 4000×rcf for 10 min. Pre-dose samples were centrifuged separately prior to dosing. The plasma was then transferred to polypropylene tubes and stored frozen at −80° C.
Plasma concentrations of SOC-1 were determined using a screening LC-MS/MS method with a following liquid/liquid extraction. Briefly, 50 μL aliquots of the test samples and calibration standards were mixed with 1 mL of hexane:dichloromethane (1:1) for 5 minutes following the addition of 10 μl of internal standard, then centrifuged and the organic phase decanted and dried under nitrogen. The samples were then reconstituted with 0.5 mL of 0.1% formic acid in 30% methanol in deionised water and 0.2 mL transferred to a 96 well plate. A 5 μL aliquot of this sample was then analysed using an ABSciex API 4000 MS/MS coupled to a Shimadzu Prominence HPLC. The HPLC gradients included 0.1% formic acid in deionised water (Mobile Phase A) and 0.1% formic acid in methanol (Mobile Phase B). The LC-MS/MS instrument settings are summarised in Appendix 2. The samples were analysed with calibrated samples (50 to 5000 ng/mL) and concentration data determined by back calculation from the standard curve.
Group mean±standard error values for plasma concentration versus time values were determined using Phoenix 64 WinNonlin software. The following pharmacokinetic parameters were also calculated by non-compartmental methods, using Phoenix 64 WinNonlin software: • Rsq—Coefficient of association for the terminal elimination phase (R2). • Lambda—Terminal elimination rate constant associated with the terminal (log-linear) portion of the curve (1/h). • T1/2—Terminal elimination half-life (h) • C0—Initial concentration at time 0 min (ng/mL) determined by back-extrapolating from the first two measured concentration values. • Tmax—Time to maximum plasma concentration following extravascular administration. • Cmax—Maximum plasma concentration following extravascular administration • AUClast—Area under the curve from the time of dosing (Dosing time, time 0 min) to the last measurable concentration (ng·h/mL). • AUCinf—AUC from Dosing time extrapolated to infinity, based on the last observed concentration (obs). (ng·h/mL). • AUC % Extrap—Percentage of AUCinf due to extrapolation from time of last measurable concentration to infinity. • Vz—Volume of distribution (L/kg). • Cl—Total body clearance (L/h/kg). […]

[2] = system: rats; assay: Non-social tests of anxiety (elevated plus maze, open field); assay type: in vivo, rat; conditions: acute dosing or residual long-term effect
[3] = molecular target: human OT receptor (Homo sapiens, UniProt P30559); assay: Orthosteric binding against [3H]OT
[4] = system: BALB/C mice; assay: Social preference test, BALB/C mouse model of autism spectrum disorders; assay type: in vivo; conditions: 5 mg/kg IP
Text: BALB/C mice have autistic-like behaviours (including reduced interest in social stimuli) compared to standard C57BL/6 mice. In a social preference test, BALB/C mice show no preference for interacting with a social stimulus (a novel mouse) over an object stimulus (a novel object), whereas C57BL/6 mice show a robust preference.

[5] = system: male Hooded Wistar rats; assay: Social interaction test; assay type: in vivo, rat
Experimental: The primary phenotypic effect was a massive increase in a behaviour called “adjacent lying” where unfamiliar rats come together in passive social contact for prolonged periods. […] (n=6-8 pairs per condition, 20 minute test). Remarkably the effects of SOC-1 outlive its acute administration and a prolonged upregulation of social behaviour (measured as time spent in close proximity) in rats given only 3 doses of SOC-1, 2 weeks previously, was observed (FIG. 1, image (B)).

[6] = molecular target: V1B (Homo sapiens, UniProt P47901); assay: Orthosteric binding, AVP receptors
[7] = system: rats; assay: Conditioned place preference; conditions: rat, in vivo
[8] = molecular target: V2 (Homo sapiens, UniProt P30518); assay: Orthosteric binding, AVP receptors
[9] = In vitro plasma stability assay; assay type: in vitro ADME; conditions: human, incubated at body temperature
[10] = molecular target: T1, OTR (Homo sapiens, UniProt P30559); assay: IP1 signalling on OTR HEK cells; assay type: cell-based
T1 construct: expressed in transfected cells; host or cells: HEK cells

[11] = male, Sprague Dawley, rat, in vivo, Mean, N 3
[12] = male, Sprague Dawley, rat, plasma, iv, 20 mg/kg, individual rats

T1 sequence (P30559 whole entry): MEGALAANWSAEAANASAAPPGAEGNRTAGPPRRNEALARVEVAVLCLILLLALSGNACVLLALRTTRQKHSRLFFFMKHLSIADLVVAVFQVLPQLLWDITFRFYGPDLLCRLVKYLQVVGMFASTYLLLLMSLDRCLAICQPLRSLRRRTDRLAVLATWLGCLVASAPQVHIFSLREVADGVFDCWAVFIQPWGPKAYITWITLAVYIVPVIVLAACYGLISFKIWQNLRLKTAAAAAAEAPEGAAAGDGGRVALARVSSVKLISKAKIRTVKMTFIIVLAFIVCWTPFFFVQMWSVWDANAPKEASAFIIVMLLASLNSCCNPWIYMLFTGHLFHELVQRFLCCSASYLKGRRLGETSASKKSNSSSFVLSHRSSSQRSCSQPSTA
Sequence of human OT receptor (P30559 whole entry): as above
Sequence of V2 (P30518 whole entry): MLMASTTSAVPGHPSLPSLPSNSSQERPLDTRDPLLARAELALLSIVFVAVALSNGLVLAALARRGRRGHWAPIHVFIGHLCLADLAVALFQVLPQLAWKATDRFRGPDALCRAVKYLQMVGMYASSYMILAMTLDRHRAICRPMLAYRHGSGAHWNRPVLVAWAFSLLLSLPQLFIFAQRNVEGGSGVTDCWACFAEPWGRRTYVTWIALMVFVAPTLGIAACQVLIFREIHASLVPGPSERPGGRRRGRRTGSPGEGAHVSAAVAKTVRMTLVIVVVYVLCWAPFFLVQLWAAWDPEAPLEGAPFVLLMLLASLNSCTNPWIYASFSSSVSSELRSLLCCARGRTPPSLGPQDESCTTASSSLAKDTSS
Sequence of V1B (P47901 whole entry): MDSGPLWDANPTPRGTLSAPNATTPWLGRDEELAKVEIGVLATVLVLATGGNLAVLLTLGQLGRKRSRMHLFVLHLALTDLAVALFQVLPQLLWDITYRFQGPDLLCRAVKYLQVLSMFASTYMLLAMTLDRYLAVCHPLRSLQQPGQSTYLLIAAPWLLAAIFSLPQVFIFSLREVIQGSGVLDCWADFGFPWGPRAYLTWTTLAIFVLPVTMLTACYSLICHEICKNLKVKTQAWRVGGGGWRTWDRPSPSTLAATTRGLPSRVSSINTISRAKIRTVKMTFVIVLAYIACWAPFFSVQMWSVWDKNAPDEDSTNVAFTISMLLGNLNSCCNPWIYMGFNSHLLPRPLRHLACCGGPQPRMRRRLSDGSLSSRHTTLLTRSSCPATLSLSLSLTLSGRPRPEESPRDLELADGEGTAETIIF

For `Cl.Cn1ncc2c1Nc1ccccc1NC2` [SOC-1], the “tolerability, morbidity or mortality” value [1] was “tolerated and there were no findings of morbidity or mortality”, the “Plasma SOC-1” value ([1]; 2 minutes post-dose, individual rats #1-#3) was 12600 ng/mL and 16500 ng/mL and the “Plasma SOC-1” value ([1]; 5 minutes post-dose, individual rats #1-#3) was 13100 ng/mL and 12200 ng/mL. For the same molecule, the “Plasma SOC-1” value ([1]; 10 minutes post-dose, individual rats #1-#3) was 10900 ng/mL and 11700 ng/mL, the “Plasma SOC-1” value ([1]; 30 minutes post-dose, individual rats #1-#3) was 8790 ng/mL and 8120 ng/mL and the “Plasma SOC-1” value ([1]; 1 hour (60 minutes) post-dose, individual rats #1-#3) was 6480 ng/mL and 6310 ng/mL. For the same molecule, the “Plasma SOC-1” value ([1]; 2 hours post-dose, individual rats #1-#3) was 3610 ng/mL and 2980 ng/mL, the “Plasma SOC-1” value ([1]; 4 hours post-dose, individual rats #1-#3) was 115 ng/mL and 286 ng/mL and 97.3 ng/mL and the “Plasma SOC-1” value ([1]; 8 hours post-dose, individual rats #1-#3) was “BLOQ^a) (below lower limit of quantitation of 50 ng/mL)”. For the same molecule, the “Plasma SOC-1” value ([1]; 24 hours post-dose, individual rats #1-#3) was “BLOQ^a) (below lower limit of quantitation of 50 ng/mL)”, the “AUC % Extrap” value ([1]; Mean, N 3) was 0.803% and the Lambda ([1]; Mean, N 3) was 1.28 h⁻¹. The “AUC % Extrap” value ([1]; individual rats) was 0.559% and 1.45% and 0.398%, the AUCinf ([1]; individual rats) was 18400 ng·h/mL and 17000 ng·h/mL and the AUClast ([1]; individual rats) was 18100 ng·h/mL and 17000 ng·h/mL. For the same molecule, the C0 ([1]; individual rats) was 12600 ng/mL and 20100 ng/mL, the Cl ([1]; individual rats) was 0.931 L/h/kg and 1.00 L/h/kg and the Lambda ([1]; individual rats) was 1.33 h⁻¹ and 1.07 h⁻¹ and 1.44 h⁻¹. The T1/2 ([1]; individual rats) was 38.8 min and 29 min, the Vz ([1]; individual rats) was 0.868 L/kg and 0.699 L/kg and the AUC(0-inf) [1, 11] was 17000 ng·h/mL. It also gave a clearance [1, 11] of 16.8 mL/min/kg, a half-life [1, 11] of 33 min and a C0 ([1]; male, Sprague Dawley, rat, in vivo, Mean, N 3, read-out: C0) of 18200 ng/mL. For the same molecule, the Vd [1, 11] was 0.799 L/kg, the concentration at 2 min ([1]; male, Sprague Dawley, rat, plasma, intravenous, 20 mg/kg, 2 minutes post-dose, individual rats #1-#3, read-out: Plasma SOC-1) was 17200 ng/mL and the concentration at 5 min ([1]; male, Sprague Dawley, rat, plasma, intravenous, 20 mg/kg, 5 minutes post-dose, individual rats #1-#3, read-out: Plasma SOC-1) was 11900 ng/mL. The concentration at 10 min ([1]; male, Sprague Dawley, rat, plasma, intravenous, 20 mg/kg, 10 minutes post-dose, individual rats #1-#3, read-out: Plasma SOC-1) was 12800 ng/mL, the concentration at 30 min ([1]; male, Sprague Dawley, rat, plasma, intravenous, 20 mg/kg, 30 minutes post-dose, individual rats #1-#3, read-out: Plasma SOC-1) was 7120 ng/mL and the concentration at 1 h ([1]; male, Sprague Dawley, rat, plasma, intravenous, 20 mg/kg, 1 hour (60 minutes) post-dose, individual rats #1-#3, read-out: Plasma SOC-1) was 5720 ng/mL. For the same molecule, the concentration at 2 h ([1]; male, Sprague Dawley, rat, plasma, intravenous, 20 mg/kg, 2 hours post-dose, individual rats #1-#3, read-out: Plasma SOC-1) was 2310 ng/mL, the AUC(0-t) ([1]; male, Sprague Dawley, rat, plasma, iv, 20 mg/kg, Mean, N 3) was 16800 ng·h/mL and the AUC(0-inf) [1, 12] was 15500 ng·h/mL. The AUC(0-t) [1, 12] was 15400 ng·h/mL, the clearance [1, 12] was 18.5 mL/min/kg and the half-life [1, 12] was 31.3 min. For the same molecule, the C0 ([1]; male, Sprague Dawley, rat, plasma, iv, 20 mg/kg, individual rats, read-out: C0) was 21900 ng/mL, the Vd [1, 12] was 0.831 L/kg and the “effect in non-social tests of anxiety” value [2] was “without effect”. For the same molecule, the IC50 [3] was > 10 µM, the “time spent investigating the object stimulus (a novel object)” value [4] was “significantly increased the amount of time the BALB/C mice spent investigating the object stimulus” and the “time spent investigating the social stimulus (a novel mouse)” value [4] was “significantly increased the amount of time BALB/C mice spent investigating the social stimulus”. For the same molecule, the “adjacent lying in the social interaction test” value ([5]; 5 and 10 mg/kg IP, 20 minute test) was “massive increase in adjacent lying”, the “pro-social effects compared with AVP, MDMA and WAY 267,464” value ([5]; most efficacious doses, adjacent lying) was “most powerful pro-social effects by a considerable margin” and the “proximity towards a novel conspecific (time spent within 1 body length)” value ([5]; two weeks following treatment, 3 doses in total across 6 days) was “increased proximity towards a novel conspecific relative to controls”. For the same molecule, the “affinity for the orthosteric binding site of V1B” value [6] was “Nor does SOC-1 show any affinity”, the conditioned place preference [7] was “does not produce a conditioned place preference” and the “affinity for the orthosteric binding site of V2” value [8] was “Nor does SOC-1 show any affinity”. The half-life at 500 nM [9] was > 360 min and the “agonist, antagonist or positive allosteric modulator activity at OTR” value [10] was “not an agonist or antagonist at OTRs, nor a positive allosteric modulator of the OTR”.
